# Patent US20220233688A1, “ADJUVANTS FOR IMMUNOGENIC COMPOSITIONS AND METHODS OF USE THEREOF” (UNIVERSITY OF MARYLAND, BALTIMORE, priority 2019, published 2022)
# “Also recorded” adds a separate entry of the source.
# How the values were obtained:
# [1] = reported in literature (21); cited from earlier work
# HPV16-L1 VLPs = tested on: HPV16-L1 VLPs; set-up: species or system BALB/c mice; conditions: mouse, in vivo
# RSV A2 = assay type: in vivo, Balb/c mice; conditions: IM days 0 and 21, RSV A2 challenge, lung four days after challenge (day 39)
# Cal/09 rHA = tested on: Cal/09 rHA; set-up: species or system BALB/c mice; conditions: mouse, in vivo
# [2] = tested on: A/Netherlands/602/2009 (H1N1) (NL/09) virus; assay type: in vivo, BALB/c mice; conditions: 7 days
# [3] = tested on: A/Netherlands/602/2009 (H1N1) (NL/09) virus; assay: Lung tissue histology inflammation scoring after NL/09 challenge; assay type: in vivo, BALB/c mice; conditions: 0.04 ug rHA alone or with 100 ug Alum or 50 ug PHAD/BECC, prime-boost
# Protocol: Staining of lung tissue was performed by the UMB EM and Histology Laboratory to assess any histological signs and potential clearing of viral infection. 4% Paraformaldehyde-fixed (Sigma-Aldrich, St Louis, Mo.) lungs were embedded in paraffin and sectioned before staining with haematoxylin and eosin (H&E). Representative slides were selected to most accurately portray the condition of the lungs within each group of vaccinated mice. Pathology scoring was performed by Dr (LT) Robert Kitz, Anatomic Pathologist, Walter Reed National Military Medical Center, Bethesda, Md. Lung sections from each mouse were scored based on overall inflammation using the following scoring parameters (group scores averaged): 0=no inflammation, 1=scant inflammation (<5% multifocal or one small focus); 2=prominent inflammation, <25% parenchyma; 3=prominent inflammation, 25-50% parenchyma; 4=diffuse inflammation, 50-75% parenchyma; 5=diffuse inflammation, >75% parenchyma.
Compound,particle size of aqueous formulation [1],L1 ELISA Ab levels (HPV16-L1 VLPs),protection by lung viral titers (RSV A2),Day 28 total serum IgG antibody titer (Cal/09 rHA),HA-specific IgG2a titer (Cal/09 rHA),average weight loss [2],histological inflammation scoring of lung [3]
"CCCCCCCCCCCCCC(=O)O[C@H](CCCCCCCCCCC)CC(=O)O[C@@H]1[C@@H](NC(=O)C[C@H](CCCCCCCCCCC)OC(=O)CCCCCCCCCCCCC)[C@H](OC[C@H]2O[C@H](O)[C@H](NC(=O)C[C@H](O)CCCCCCCCCCC)[C@@H](OC(=O)C[C@H](O)CCCCCCCCCCC)[C@@H]2O)O[C@H](CO)[C@H]1OP(=O)(O)O [GLA, glucopyranosyl lipid-A]",90 nm,–,–,–,–,–,–
phosphorylated hexa-acyl disaccharide [PHAD],–,greater L1 ELISA Ab levels compared to alum alone,full protection in the lower respiratory tract,significant difference between the HA alone and PHAD groups; also recorded: somewhat higher,significantly higher than sham,10%,low inflammation scores with minimal bronchiolar or periarterial inflammation
